Molecular target: T1, Recombinant human KIF18A (1-467 His-tagged) (Homo sapiens, UniProt Q8NI77)
T1 construct: Recombinant human KIF18A (1-467 His-tagged) protein; His
Assay: KIF18A Enzyme Assay: microtubule-stimulated ATPase activity (ADP-Glo)
Format: biochemical
Settings: 30 nM KIF18A, 30 μg/mL pig microtubules, ATP 75 μM (Km), ADP-Glo luminescence
Procedure: KIF18A Enzyme Assay: Microtubule-stimulated ATPase activity assay is used to measure KIF18A enzyme activity after treatment with compound. Compounds were 2-fold serially diluted in DMSO (Sigma Inc) over 22-point concentration range. […] The assay measures ADP formed from the ATPase reaction. […] Read luminescence using EnVision microplate reader with ultra-luminescence module (Perkin Elmer Inc). Concentration-response curve-fitting and IC50 determination was performed using Genedata Screener Software (Standard 15.0.1, Genedata Inc) with a four-parameter logistic regression fit model.

T1 sequence (Q8NI77 1-467): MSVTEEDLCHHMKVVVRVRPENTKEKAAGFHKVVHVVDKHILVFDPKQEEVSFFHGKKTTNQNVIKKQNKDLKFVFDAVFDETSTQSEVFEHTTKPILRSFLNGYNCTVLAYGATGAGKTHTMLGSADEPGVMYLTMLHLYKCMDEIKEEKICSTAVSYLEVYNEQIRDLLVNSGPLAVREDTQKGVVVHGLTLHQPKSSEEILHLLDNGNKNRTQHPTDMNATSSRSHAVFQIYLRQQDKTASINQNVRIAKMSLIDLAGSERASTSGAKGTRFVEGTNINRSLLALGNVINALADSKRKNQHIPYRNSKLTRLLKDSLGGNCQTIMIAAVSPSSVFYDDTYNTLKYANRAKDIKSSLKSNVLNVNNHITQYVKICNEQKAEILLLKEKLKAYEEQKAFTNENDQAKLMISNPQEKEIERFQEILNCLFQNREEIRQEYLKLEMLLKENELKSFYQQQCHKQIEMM
T1 sequence (P02550 whole entry partner): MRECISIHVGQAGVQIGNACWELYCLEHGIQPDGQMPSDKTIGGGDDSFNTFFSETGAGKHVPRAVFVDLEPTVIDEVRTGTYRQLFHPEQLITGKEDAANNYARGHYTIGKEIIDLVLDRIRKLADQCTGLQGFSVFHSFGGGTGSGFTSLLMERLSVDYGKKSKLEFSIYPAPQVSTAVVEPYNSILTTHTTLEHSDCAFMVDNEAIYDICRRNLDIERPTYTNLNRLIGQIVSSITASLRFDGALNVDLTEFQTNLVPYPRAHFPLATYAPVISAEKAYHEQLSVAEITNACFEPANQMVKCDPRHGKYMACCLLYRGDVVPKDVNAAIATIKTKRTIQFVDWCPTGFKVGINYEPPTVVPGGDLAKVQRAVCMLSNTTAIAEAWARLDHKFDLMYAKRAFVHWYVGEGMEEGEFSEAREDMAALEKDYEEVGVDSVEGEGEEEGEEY
T1 sequence (P02554 whole entry partner): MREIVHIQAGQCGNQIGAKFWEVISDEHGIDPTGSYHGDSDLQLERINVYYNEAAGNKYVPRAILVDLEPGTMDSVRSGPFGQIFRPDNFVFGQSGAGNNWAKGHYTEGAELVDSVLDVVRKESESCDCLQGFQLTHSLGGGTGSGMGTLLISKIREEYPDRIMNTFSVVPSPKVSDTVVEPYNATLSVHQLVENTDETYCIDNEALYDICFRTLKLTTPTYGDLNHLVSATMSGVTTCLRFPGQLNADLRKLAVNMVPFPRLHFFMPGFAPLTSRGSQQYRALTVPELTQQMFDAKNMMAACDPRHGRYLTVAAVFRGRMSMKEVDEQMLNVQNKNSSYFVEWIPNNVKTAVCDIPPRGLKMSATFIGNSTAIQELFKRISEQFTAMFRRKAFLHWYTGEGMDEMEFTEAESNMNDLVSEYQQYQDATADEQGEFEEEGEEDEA

An IC50 of 16 nM was found for C[C@H](CO)S(=O)(=O)Nc1ccc(C(=O)Nc2cccc(OCCC(F)(F)F)n2)c(N2CCC3(CC2)CC3)c1 (single isomer, unassigned) [Example 8-1] in this work.

An IC50 of 14 nM was found for C[C@@H](CO)S(=O)(=O)Nc1ccc(C(=O)Nc2cccc(OCCC(F)(F)F)n2)c(N2CCC3(CC2)CC3)c1 (single isomer, unassigned) [Example 8-2] in this work.

An IC50 of 33 nM was found for C[C@H](CO)S(=O)(=O)Nc1ccc(C(=O)Nc2cccc(N3CC(F)C3)n2)c(N2CCC3(CC2)CC3)c1 (single isomer, unassigned) [Example 9-1] in this work.

An IC50 of 47.2 nM was found for C[C@@H](CO)S(=O)(=O)Nc1ccc(C(=O)Nc2cccc(N3CC(F)C3)n2)c(N2CCC3(CC2)CC3)c1 (single isomer, unassigned) [Example 9-2] in this work.

An IC50 of 25 nM was found for C[C@H](CO)S(=O)(=O)Nc1ccc(C(=O)Nc2cccc(N3CC(F)(F)C3)n2)c(N2CCC3(CC2)CC3)c1 (single isomer, unassigned) [Example 9-3] in this work.

An IC50 of 68 nM was found for C[C@@H](CO)S(=O)(=O)Nc1ccc(C(=O)Nc2cccc(N3CC(F)(F)C3)n2)c(N2CCC3(CC2)CC3)c1 (single isomer, unassigned) [Example 9-4] in this work.

An IC50 of 17 nM was found for Cc1cc(NC(=O)c2ccc(NS(=O)(=O)[C@H](C)CO)cc2N2CCC3(CC2)CC3)nc(N2CC(F)(F)C2)c1 (single isomer, unassigned) [Example 9-5] in this work.

An IC50 of 57 nM was found for Cc1cc(NC(=O)c2ccc(NS(=O)(=O)[C@@H](C)CO)cc2N2CCC3(CC2)CC3)nc(N2CC(F)(F)C2)c1 (single isomer, unassigned) [Example 9-6] in this work.

An IC50 of 27 nM was found for Cc1cc(NC(=O)c2ccc(NS(=O)(=O)[C@@H](C)CO)cc2N2CCC3(CC2)CC3)nc(N2CCC(F)(F)CC2)c1 (single isomer, unassigned) [Example 9-7] in this work.

An IC50 of 38 nM was found for Cc1cc(NC(=O)c2ccc(NS(=O)(=O)[C@H](C)CO)cc2N2CCC3(CC2)CC3)nc(N2CCC(F)(F)CC2)c1 (single isomer, unassigned) [Example 9-8] in this work.

An IC50 of 41 nM was found for C[C@@H](CO)S(=O)(=O)Nc1ccc(C(=O)Nc2cccc(N3CCC(F)(F)CC3)n2)c(N2CCC3(CC2)CC3)c1 (single isomer, unassigned) [Example 9-9] in this work.

An IC50 of 37 nM was found for C[C@H](CO)S(=O)(=O)Nc1ccc(C(=O)Nc2cccc(N3CCC(F)(F)CC3)n2)c(N2CCC3(CC2)CC3)c1 (single isomer, unassigned) [Example 9-10] in this work.

An IC50 of 38 nM was found for Cc1cc(NC(=O)c2ccc(NS(=O)(=O)[C@H](C)CO)cc2N2CCC3(CC2)CC3)nc(N2CCO[C@H](C)C2)c1 (single isomer, unassigned) [Example 9-11] in this work.

An IC50 of 39 nM was found for Cc1cc(NC(=O)c2ccc(NS(=O)(=O)[C@@H](C)CO)cc2N2CCC3(CC2)CC3)nc(N2CCO[C@H](C)C2)c1 (single isomer, unassigned) [Example 9-12] in this work.

An IC50 of 18 nM was found for Cc1cc(NC(=O)c2ccc(NS(=O)(=O)[C@H](C)CO)cc2N2CCC3(CC2)CC3)nc(N2CCOCC2)c1 (single isomer, unassigned) [Example 9-13] in this work.

An IC50 of 18 nM was found for Cc1cc(NC(=O)c2ccc(NS(=O)(=O)[C@@H](C)CO)cc2N2CCC3(CC2)CC3)nc(N2CCOCC2)c1 (single isomer, unassigned) [Example 9-14] in this work.

An IC50 of 37 nM was found for C[C@@H]1CN(c2cccc(NC(=O)c3ccc(NS(=O)(=O)[C@H](C)CO)cc3N3CCC4(CC3)CC4)n2)CCO1 (single isomer, unassigned) [Example 9-15] in this work.

An IC50 of 48 nM was found for C[C@@H]1CN(c2cccc(NC(=O)c3ccc(NS(=O)(=O)[C@@H](C)CO)cc3N3CCC4(CC3)CC4)n2)CCO1 (single isomer, unassigned) [Example 9-16] in this work.

An IC50 of 24 nM was found for C[C@H](CO)S(=O)(=O)Nc1ccc(C(=O)Nc2cccc(N3CCO[C@@H](C)C3)n2)c(N2CCC3(CC2)CC3)c1 (single isomer, unassigned) [Example 9-17] in this work.

An IC50 of 36 nM was found for C[C@H]1CN(c2cccc(NC(=O)c3ccc(NS(=O)(=O)[C@@H](C)CO)cc3N3CCC4(CC3)CC4)n2)CCO1 (single isomer, unassigned) [Example 9-18] in this work.

An IC50 of 85 nM was found for C[C@@H]1CN(c2cccc(NC(=O)c3ccc(S(=N)(=O)C4CC4)cc3N3CCC4(CC3)CC4)n2)CCO1 (single isomer, unassigned) [Example 12-1] in this work.

An IC50 of 43 nM was found for C[C@@H]1CN(c2cccc(NC(=O)c3ccc(S(=N)(=O)C4CC4)cc3N3CCC4(CC3)CC4)n2)CCO1 (single isomer, unassigned) [Example 12-2] in this work.

An IC50 of 199 nM was found for C[C@@H]1CN(c2cccc(NC(=O)c3ccc([S@](=N)(=O)C(C)(C)C)cc3N3CCC4(CC3)CC4)n2)CCO1 (single isomer, unassigned) [Example 13-1] in this work.

An IC50 of 182 nM was found for C[C@@H]1CN(c2cccc(NC(=O)c3ccc([S@@](=N)(=O)C(C)(C)C)cc3N3CCC4(CC3)CC4)n2)CCO1 (single isomer, unassigned) [Example 13-2] in this work.

An IC50 of 418 nM was found for C[C@@H]1CN(c2cccc(NC(=O)c3ccc(S(C)(=N)=O)cc3N3CCC4(CC3)CC4)n2)CCO1 (single isomer, unassigned) [Example 13-3] in this work.

An IC50 of 22 nM was found for N=S(=O)(c1ccc(C(=O)Nc2cccc(OCCC(F)(F)F)n2)c(N2CCC3(CC2)CC3)c1)C1CC1 (single isomer, unassigned) [Example 27-1, 2-(6-Azaspiro[2.5]octan-6-yl)-4-(S-cyclopropylsulfonimidoyl)-N-(6-(3,3,3-trifluoropropoxy)-2-pyridinyl)benzamide] in this work.

An IC50 of 16 nM was found for N=[S@@](=O)(c1ccc(C(=O)Nc2cccc(OCCC(F)(F)F)n2)c(N2CCC3(CC2)CC3)c1)C1CC1 (single isomer, unassigned) [Example 27-2, 2-(6-Azaspiro[2.5]octan-6-yl)-4-(R-cyclopropylsulfonimidoyl)-N-(6-(3,3,3-trifluoropropoxy)-2-pyridinyl)benzamide] in this work.

An IC50 of 71 nM was found for Cc1cc(NC(=O)c2ccc(S(=N)(=O)C3CC3)cc2N2CCC3(CC2)CC3)nc(N2CC(F)(F)C2)c1 (single isomer, unassigned) [Example 28-1, 2-(6-Azaspiro[2.5]octan-6-yl)-4-(S-cyclopropylsulfonimidoyl)-N-(6-(3,3-difluoro-1-azetidinyl)-4-methyl-2-pyridinyl)benzamide] in this work.

An IC50 of 165 nM was found for Cc1cc(NC(=O)c2ccc(S(=N)(=O)C3CC3)cc2N2CCC3(CC2)CC3)nc(N2CCO[C@H](C)C2)c1 (single isomer, unassigned) [Example 29-1] in this work.

An IC50 of 81 nM was found for Cc1cc(NC(=O)c2ccc([S@](=N)(=O)C3CC3)cc2N2CCC3(CC2)CC3)nc(N2CCC(F)(F)CC2)c1 (single isomer, unassigned) [Example 30-1, 2-(6-Azaspiro[2.5]octan-6-yl)-4-(S-cyclopropylsulfonimidoyl)-N-(6-(4,4-difluoro-1-piperidinyl)-4-methyl-2-pyridinyl)benzamide] in this work.

An IC50 of 154 nM was found for C[C@@H]1CN(c2cccc(NC(=O)c3ccc(S(C)(=N)=O)cc3N3CCC4(CC3)CC4)n2)CCO1 (stereo in doubt) [Example 13-4, 2-(6-Azaspiro[2.5]octan-6-yl)-N-(6-((2R)-2-methyl-4-morpholinyl)-2-pyridinyl)-4-(R-methylsulfonimidoyl)benzamide] in this work.

An IC50 of 37 nM was found for Cc1cc(NC(=O)c2ccc(S(=N)(=O)C3CC3)cc2N2CCC3(CC2)CC3)nc(N2CC(F)(F)C2)c1 (stereo in doubt) [Example 28-2, 2-(6-Azaspiro[2.5]octan-6-yl)-4-(R-cyclopropylsulfonimidoyl)-N-(6-(3,3-difluoro-1-azetidinyl)-4-methyl-2-pyridinyl)benzamide] in this work.
